Entries after “also recorded” stand apart in the source; their conditions may differ.
What was measured:
[1] = tested on: THP-1 cells conditioned with Chlamydia pneumoniae; assay: Oxidant activity (ethylene production from KMB, gas liquid chromatography) of THP-1 cells conditioned with Chlamydia pneumoniae, then stimulated by PMA; type: cell-based, human; details: for Ethylene: % of THP-1 + Chlamydia
Experimental: This model has been described in details in Mouithys Mickalad et al. (Biochem Biophys Res Comm 2001, 287: 781-788). Treatment of the Cells with Chlamydia pneumoniae:
The monocytes (in multiwell plates, 2×10^6 cells/well) are conditioned by a pre-incubation of 19 hours with elementary bodies of Chlamydia pneumoniae (at a dose equivalent to a mean endotoxin concentration of 3.3 pg). The elementary bodies are obtained by Chlamydia culture in MacCoy cells (American Type Culture Collection, Rockville, USA).
After incubation with C. pneumoniae, the cells are washed and detached from the wells; they are put in sterile vials and an oxidable substrate, α-keto-methyl butyric acid (KMB) at 10^−3 M, is added. The vial is sealed and the following reagents are added by needle puncture. through the septum: 200 U horseradish peroxidase (HRP) and 10^−7 M phorbol myristate acetate (PMA).
PMA is a monocyte activator, enhancing the superoxide anion production by these cells. Superoxide anion dismutates into hydrogen peroxide (H2O2), which is used by HRP to form more oxidant species, able to oxidize KMB, releasing ethylene. After 3 hours of incubation at 37° C, ethylene, which has accumulated in the gaseous phase of the sealed vial is measured by gas liquid chromatography, on a Porapak T column (TM) equipped with flame ionisation detector. These assays can be made with the prior addition of a reagent able to inhibit or to stimulate the monocytes, the reagent being added, either at pre-incubation (at the same time as the Chlamydia EB), or at the moment of PMA activation.

superoxide anion = assay: EPR spin-trapping of superoxide anion produced by Chlamydia-conditioned, PMA stimulated THP-1 cells; type: cell-based, human; details: 10 μM DPI; FIG. 5 lines I-5 and II-4; PMA 5×10^−7 M
Description: Monocytes are conditioned by Chlamydia. The formation of this species was monitored by electron paramagnetic resonance, using spin-trapping agents.

THP-1 cells = assay: Microscopy of monocyte transformation into macrophages under Chlamydia pneumoniae; type: cell-based, human
Experimental: Incubation of THP-1 cells with C. pneumoniae induces the differentiation of monocytes (round floating cells, […] diameter; FIG. 1, 1) into macrophages, amiboid cells, which are larger than monocytes (30-50 μm diameter) and adhere to the support (FIGS. 1,2). Monocytes are stained with Giemsa and May-Grunwald stains (Merck, Germany) (Chemical methods of medical investigation, 1964, 10th edition by E. Merck AG. Darmstadt, Germany) and macrophages are observed by phase contrast microscopy.

THP-1 cell line = assay: Model of foam cell formation from THP-1 monocytes (Chlamydia pneumoniae, then LDL or liposomes, Oil Red O); type: cell-based, human; details: 10^−5 M; LDL
Experimental: A model of foam cell formation from monocytes (THP-1 cell line) was developed. The cells are incubated for 19 hours with Chlamydia pneumoniae. This incubation is followed by the addition of human LDL or liposomes, and another incubation period of 48 hours. At the end of this second period of incubation, the cells are fixed and stained with oil Red O (Sigma, Belgium) (Smirnova et al., 2004, Am J Physiol Heart Circ Physiol. March 11 (Epub ahead of print) to highlight the foam cells. When drugs are used in this model, they are added at the same time as the LDL or liposomes. LDL are prepared from human blood drawn on EDTA. They are isolated by sequential flotation centrifugation with increased concentrations of KBr. After their isolation, LDL are dialysed, sterilised by filtration and their purity is confirmed by electrophoresis. Liposomes are lipid vesicles prepared by extrusion with cholesterol esters and phospholipids, mimicking lipoproteins.

[2] = Dunnick et al.; cited from earlier work
[3] = tested on: nuclear transcription factor kappaB (NF-κB); assay: Activation of NF-κB (binding to DNA) by electrophoretic mobility shift assay in THP-1 cells pre-incubated with Chlamydia; type: cell-based, human; details: THP-1 + Chlamydia, % of THP-1 without preincubation with C pneumoniae (FIG. 7)
Experimental: FIG. 7 represents the effects of pre-incubation with Chlamydia on the activity of the nuclear transcription factor kappaB (NF-kB) (column 2). NF-kB is expressed in % of column 1 (THP-1 cells without preincubation with C pneumoniae)
The activation of NF-κB was measured by the technique of <<electrophoretic mobility shift assay>> (EMSA) (Schoonbroodt et al., 2000, J Immunol. 164: 4292-4300; Nys et al., 2003, Nitric Oxide 9: 33-43) (FIG. 7). The activation of NF-κB is expressed in % of control cells (cells which have not been pre-incubated with Chlamydia) (column 1). The incubation of monocytes with C. pneumoniae activates the NF-κB binding to DNA (FIG. 7, column 2).

[4] = drug added at cell conditioning with Chlamydia (pre-incubation 19 hours), then PMA 10^−7 M
[5] = not pre-incubated, added directly before the stimulation by PMA

For `CC/C(=C(/CC)c1ccc(O)cc1)c1ccc(O)cc1` [bertrol, trans-α-α-diethyl-p,p′-stilbenediol], the Ethylene ([1]; FIG. 21, drug alone 10^−4 M, pre-incubation with Chlamydia) was 1.6% and the Ethylene ([1]; FIG. 21, drug alone 10^−5 M, pre-incubation with Chlamydia) was 32.0%.

Compound `C[C@]12CC[C@@H]3c4ccc(O)cc4CC[C@H]3[C@@H]1CC[C@@H]2O` [estradiol] has an Ethylene ([1]; FIG. 10, 10^−4 M not pre-incubated (added just before PMA)) of 2.6%, an Ethylene ([1]; FIG. 10, 10^−4 M pre-incubated with Chlamydia) of 140.0% and an Ethylene ([1]; FIG. 10, 10^−5 M not pre-incubated (added just before PMA)) of 2.9%. For the same compound, the Ethylene ([1]; FIG. 10, 10^−5 M pre-incubated with Chlamydia) was 133.0%, the Ethylene ([1]; FIG. 10, 10^−6 M not pre-incubated (added just before PMA)) was 7.8% and the Ethylene ([1]; FIG. 10, 10^−6 M pre-incubated with Chlamydia) was 85.0%.

In the case of `Oc1cc(O)cc(C=Cc2ccc(O)c(O)c2)c1` [piceatanol, 3,4,3′,5′tetrahydrostilbene], the Ethylene ([1]; FIG. 20, drug alone 10^−4 M, pre-incubation with Chlamydia) is reported as 0.4% and the Ethylene ([1]; FIG. 20, drug alone 10^−5 M, pre-incubation with Chlamydia) is reported as 57.0%.

In the case of `COc1cc(C(C)=O)ccc1O` [apocyanine, apocynine], the “effect on oxidant activity / oxidation rate” value [1, 4] is reported as “little or no effect”.

With `c1ccc([I+]c2ccccc2)cc1` [DPI, diphenyl iodonium] the “effect on EPR signal of superoxide anion” value (superoxide anion) was “suppresses” and the “effect on ethylene production” value ([1]; DPI 5 μM, FIG. 3 column 7, PMA 10^−7 M) was “inhibits almost totally”.

In the case of `CC(=O)c1ccc2c(c1)N(CCCN(C)C)c1ccccc1S2` [acepromazine], the “effect on oxidant activity / oxidation rate” value [1, 4] is reported as “little or no effect”.

tocopherol showed an Ethylene ([1]; FIG. 11 column 4, 10^−4 M pre-incubated) of 147.0%, an Ethylene ([1]; FIG. 11 column 5, 10^−6 M pre-incubated (so in the source)) of 133.0% and an Ethylene ([1]; FIG. 11 column 6, 10^−6 M pre-incubated) of 87.0%. It also gave an Ethylene ([1]; FIG. 11 column 7, 10^−4 M not pre-incubated (added just before PMA)) of 2.4%, an Ethylene ([1]; FIG. 11 column 8, 10^−5 M not pre-incubated (added just before PMA)) of 2.5% and an Ethylene ([1]; FIG. 11 column 9, 10^−6 M not pre-incubated (added just before PMA)) of 77.0%. The “effect on oxidant activity / oxidation rate” value [1, 4] was “favouring the oxidation rate”, the “effect on oxidant activity / oxidation rate” value ([1]; drug added at cell conditioning with Chlamydia (pre-incubation 19 hours), then PMA 10^−7 M, listed as vitamin E (tocopherol)) was “little or no effect” and the “effect on ethylene production” value [1, 5] was “quite completely inhibit the ethylene production”.

In the case of `Oc1ccc(/C=C/c2cc(O)cc(O)c2)cc1` [Resveratrol, trans-reveratrol], the “inhibition of the monocyte transformation into macrophages” value (THP-1 cells; at 10^−4 M) is reported as “nearly complete”, the “inhibition of the monocyte transformation into macrophages” value (THP-1 cells; at 10^−5 M) is reported as “partial” and the “effect on transformation into foam cells” value (THP-1 cell line) is reported as “completely inhibits”. The Ethylene ([1]; FIG. 19, drug alone 10^−4 M, pre-incubation with Chlamydia) was 18.3%, the Ethylene ([1]; FIG. 19, drug alone 10^−5 M, pre-incubation with Chlamydia) was 35.8% and the “effect on oxidant activity / oxidation rate” value [1, 4] was “reduces the oxidizing activity of THP-1 cells”. The “effect on ethylene production” value [1, 5] was “inhibiting capacity is still more marked”.

In the case of `O=c1c(O)c(-c2ccc(O)c(O)c2)oc2cc(O)cc(O)c12` [Quercetin, quercetin], the “concentrations at which toxicity does not exist” value [2] is given as ≤ 10^−4 M, the “effect on oxidant activity / oxidation rate” value ([1]; 10^−4 M, pre-incubated with Chlamydia) is given as “active; also recorded: inhibitor” and the Ethylene ([1]; FIG. 12, 10^−4 M incubated together with Chlamydia) is given as 2.0%. For the same compound, the Ethylene ([1]; FIG. 12, 10^−4 M not incubated (added just before PMA)) was 3.7%, the Ethylene ([1]; FIG. 12, 10^−5 M incubated together with Chlamydia) was 100.0% and the Ethylene ([1]; FIG. 12, 10^−5 M not incubated (added just before PMA)) was 1.2%. The Ethylene ([1]; FIG. 12, 10^−6 M incubated together with Chlamydia) was 131.0%, the Ethylene ([1]; FIG. 12, 10^−6 M not incubated (added just before PMA)) was 6.6% and the “effect on ethylene production” value [1, 5] was “quite completely inhibit the ethylene production”.

Compound `Oc1ccc(/C=C/c2ccccc2)cc1` [trans-4-stilbene, trans-4-hydrostilbene] has an Ethylene ([1]; FIG. 22, drug alone 10^−4 M, pre-incubation with Chlamydia) of 1.8% and an Ethylene ([1]; FIG. 22, drug alone 10^−5 M, pre-incubation with Chlamydia) of 14.0%.

For `C[C@H]1C[C@@H]2[C@H]([C@@H](O)C[C@@]3(C)[C@H]2CC[C@]3(O)C(=O)CO)[C@@]2(C)C=CC(=O)C=C12` [MPL, methylprednisolone], the “NF-κB relative value (%)” value ([3]; 10^−5 M) was 417% and the “NF-κB relative value (%)” value ([3]; 10^−6 M) was 450%.
